Measured values from article PMC4012460, “Seven New and Two Known Lipopeptides as well as Five Known Polyketides: The Activated Production of Silent Metabolites in a Marine-Derived Fungus by Chemical Mutagenesis Strategy Using Diethyl Sulphate” (Marine Drugs, 2014).
pIC50: −log10 of the molar value. Read-outs that look alike come from different tables or passages of the source.

Columns and labels:
[1] = tested on: K562 cells; set-up: inhibition rate (IR%) on K562 cells: dose or concentration left out as unconfirmed
[2] = tested on: human prostate carcinoma PC-3 cells; details: read-out: IC50, cytotoxic against PC-3 cells; cited from earlier work
Protocol: (§1) Fellutamide A and B (8) were originally identified for their cytotoxic properties on murine leukemia P388 and L1210, and human epidermoid carcinoma KB cells with IC50 values 0.1–0.8 µg/mL [15].

[3] = tested on: HL-60 cells; details: MTT, 24 h
[4] = tested on: HeLa cells; details: MTT, 24 h
[5] = tested on: BGC-823 cells; details: MTT, 24 h
[6] = tested on: murine leukemia P388 and L1210, and human epidermoid carcinoma KB cells; details: one range for both compounds and three cell lines; cited from earlier work
Protocol: as §1

[7] = tested on: K562 cells; assay: cells; details: Homo sapiens, K562, 24 h, read-out: inhibition rate (IR%) on K562 cells
[8] = tested on: HL-60 cells; assay: cells; details: Homo sapiens, HL-60, 24 h, read-out: inhibition rate (IR%) on HL-60 cells
[9] = tested on: HeLa cells; assay: cells; details: Homo sapiens, 24 h, read-out: inhibition rate (IR%) on HeLa cells
[10] = tested on: BGC-823 cells; assay: cells; details: Homo sapiens, BGC-823, 24 h, read-out: inhibition rate (IR%) on BGC-823 cells
[11] = tested on: MCF-7 cells; assay: cells; details: Homo sapiens, MCF7, 24 h, read-out: inhibition rate (IR%) on MCF-7 cells
[12] = MTT, 24 h at 37 °C, OD 570 nm, OD means of three wells
[13] = from IR% at different concentrations

## CCCCC[C@H](O)c1c(O)cc2c(c1O)C(=O)c1c(O)cc(O)cc1C2=O [Compound 11, Averantin]
[1]; [12]
  inhibition rate (IR%) on K562 cells: 51.9%

## fellutamide D
[2]
  pIC50: 6.80

## C[C@]12CCC[C@H](O1)c1c(cc3c(c1O)C(=O)c1c(O)cc(O)cc1C3=O)O2 [Compound 12, Averufin]
[1]; [12]
  inhibition rate (IR%) on K562 cells: 37.9%

## CCCCCCCCC[C@@H](O)CC(=O)N[C@@H](CC(N)=O)C(=O)N[C@@H](CCC(N)=O)C(=O)N[C@H](C=O)CC(C)C [Compound 8, Fellutamide B]
[1]; 24 h
  pIC50: 4.28
[1]; MTT, 24 h, from IR% at different concentrations
  half-inhibitory concentration (IC50) for K562: 29.1 mg/L
[3]; [13]
  half-inhibitory concentration (IC50) for HL-60: 59.9 mg/L
[3]; read-out: half-inhibitory concentration (IC50) for HL-60, value in brackets, molar
  pIC50: 3.97
[4]; [13]
  half-inhibitory concentration (IC50) for HeLa: 59.5 mg/L
[4]; read-out: half-inhibitory concentration (IC50) for HeLa, value in brackets, molar
  pIC50: 3.97
[5]; [13]
  half-inhibitory concentration (IC50) for BGC-823: 77.9 mg/L
[5]; read-out: half-inhibitory concentration (IC50) for BGC-823, value in brackets, molar
  pIC50: 3.85
[6]
  IC50, cytotoxic properties on P388, L1210 and KB cells: 0.1 to 0.8 mg/L

## CCCCC[C@H](OC)c1c(O)cc2c(c1O)C(=O)c1c(O)cc(O)cc1C2=O [Compound 10, 1′-O-Methylaverantin]
[1]; [12]
  inhibition rate (IR%) on K562 cells: 11.6%

## O=c1[nH]cc(F)c(=O)[nH]1 [Compound 5-FU, 5-fluorouracil]
[7]
  inhibition at 100 µg/mL: 48.5%
[8]
  inhibition at 100 µg/mL: 38.2%
[9]
  inhibition at 100 µg/mL: 37.4%
[10]
  inhibition at 100 µg/mL: 47.8%
[11]
  inhibition at 100 µg/mL: 47.4%

## Fellutamide A [reference compound]
[6]
  IC50, cytotoxic properties on P388, L1210 and KB cells: 0.1 to 0.8 mg/L

## C[C@]12CC[C@H](O)[C@H](O1)c1c(cc3c(c1O)C(=O)c1c(O)cc(O)cc1C3=O)O2 [Compound 13, Nidurufin]
[1]; [12]
  inhibition rate (IR%) on K562 cells: 25.5%

## fellutamide E
[2]
  pIC50: 6.36

## COc1cc2c(c3oc4cccc(O)c4c(=O)c13)[C@@H]1C=CO[C@@H]1O2 [Compound 14, Sterigmatocystin]
[1]
  inhibition rate (IR%) on K562 cells: 37.5%
